Experimental data from patent US4771057A, “Reduced pyridyl derivatives with cardiovascular regulating properties” (University of Alberta, priority 1986, dated 1988).

Experiments:
calcium channel = details: literature comparison for D-30; cited from earlier work
guinea pig right atria = test: Guinea pig right atria heart rate; type: cell-based
Description: (§1) A modified protocol, used for testing calcium channel antagonists (vide supra), was used to determine the concentration at which D-30 produced 50% of the maximum contractile response. D-30 was administered in the place of CD and the dose-response curve was determined. A calcium antagonist was not added during the experiment. […] Similarly, the effective dose of the isomeric D-31 producing 50% of the maximum contractile response was 6.6×10^-5 M. Both D-30 and D-31 increased the guinea pig right atria heart rate by 30%.

[1] = system: guinea pig ileal longitudinal smooth muscle; test: Calcium channel agonist testing: contractile response of guinea pig ileal longitudinal smooth muscle, compound given in place of CD; type: cell-based; details: for EC50: Cavia porcellus, given in the place of CD, no calcium antagonist added, read-out: effective dose producing 50% of the maximum contractile response
Description: Calcium channel antagonist activity was determined as the concentration required to produce 50% inhibition of the muscarinic receptor-mediated Ca^2+ -dependent contraction of guinea pig ileal longitudinal smooth muscle assay (C. Triggle, V. Swamy and D. Triggle, Can. J. Physiol. Pharmacol., 1979, 57, 804). Male albino guinea pigs (body weight 300-450 g) were sacrificed by decapitation. The intestine was removed above the ileo-caecal junction. Longitudinal smooth muscle segments of 2 cm length were mounted under a resting tension of 300-400 mg. The segments were maintained at 37° C. in a 10 mL jacketed organ bath containing oxygenated (100% O2) physiological saline solution of the following composition (mM): NaCl: 137; CaCl2 : 2.6; KCl: 5.9; MgCl2 : 1.2; glucose: 11.9; buffered by Hepes-NaOH to pH 7.4. The muscles were equilibrated for 1 h with a solution change every 15 min. Two successive control contractions were elicited at 15 min intervals with 5×10^-7 M cis-2-methyl- 4-dimethylaminomethyl-1,3-dioxolane methiodide (CD). The isometric contractions were recorded with a force displacement transducer (FT 03C) on a GRASS physiograph. The means of the two contractile responses was taken as the 100% value for the tonic (slow) component of the response. The muscle was washed with Hepes saline solution and was allowed to re-equilibrate. The calcium antagonist (test compound) was added ten min before the dose-response for CD was determined. The drug-induced inhibition of contraction was expressed as percent of control. The ID50 values were graphically determined from the concentration-response curves. The test results are shown in Table 7, the compounds testing being compared to Nifedipine (TM).
as §1

COC(=O)C1=C(C)NC(C)=C([N+](=O)[O-])C1c1ccccc1C(F)(F)F (centres unmarked) [Bay K 8644]
calcium channel agonist activity of reference compounds (calcium channel): calcium channel agonist which promotes calcium entry into cells

CCOC(=O)C1=C(C)NC2=C(C(=O)OC2)C1c1ccccc1OC(F)F (centres unmarked) [CGP 28392]
calcium channel agonist activity of reference compounds (calcium channel): calcium channel agonist which promotes calcium entry into cells

COC(=O)C1=C(C)NC(C)=C([N+](=O)[O-])C1c1cccnc1 [Compound D-30, methyl 2,6-dimethyl-3-nitro-4-(3'-pyridyl)-1,4-dihydropyridine-5-carboxylate]
increase of guinea pig right atria heart rate (guinea pig right atria): 30%
EC50 [1]: 94 µM
calcium channel agonist activity ([1]; conclusion from contractile response): calcium channel agonist which promotes calcium entry into cells
muscle contraction ([1]; tested using the calcium channel antagonist testing procedure): caused muscle contraction

COC(=O)C1=C(C)NC(C)=C([N+](=O)[O-])C1c1ccncc1 [Compound D-31, methyl 2,6-dimethyl-3-nitro-4-(4'-pyridyl)-1,4-dihydropyridine-5-carboxylate]
increase of guinea pig right atria heart rate (guinea pig right atria): 30%
EC50 [1]: 66 µM
